Read-outs that look alike come from different tables or passages of the source.
Key:
Hs 578T = assay: 3D spheroid (tumorosphere) formation assay, low attachment, serum-free, alamarBlue; format: cell-based; settings: for IC50: Homo sapiens
Procedure: (§1) 3D spheroid formation assays were performed in 96-well low-attachment, suspension culture plates (cat. no. 655185, Cellstar, Greiner Bio-One) under serum-free condition. About 1,000 (MDA-MB-231, NCI-H358, and MIA PaCa-2) or 2,500 (Hs 578T) cells per well were seeded in 50 μl of either an RPMI medium (cat. no. 52400-025, Gibco, Thermo Fisher Scientific) (MDA-MB-231, A375, and NCI-H358) or DMEM (cat. no. 41965-039, Gibco, Thermo Fisher Scientific) (Hs 578T and MIA PaCa-2), containing 0.5% MethoCult (cat. no. SF H4636, Stemcell technologies), 1x B27 (cat. no. 17504044, Gibco, Thermo Fisher Scientific), 25 ng/ml EGF (cat. no. E9644, Sigma-Aldrich), and 25 ng/ml FGF (cat. no. RP-8628, Thermo Fisher Scientific). Cells were cultured for 3 days and then treated with compounds or vehicle control (DMSO 0.1% v/v in growth medium) for another 3 days. The cells were supplemented with a fresh growth medium on the third day together with the drug treatment. For knockdown experiments, cells were seeded in 12-well plates and treated with either 50 nM scrambled siRNA (cat. no. 1022076, QIAGEN) or indicated concentrations of siRNAs. Next day, cells were collected by trypsinization and re-plated into 96-well plates for 3D spheroid suspension culture.
(§2) Spheroid formation efficiency was analyzed by an alamarBlue assay reagent (cat. no. DAL1100, Thermo Fisher Scientific). A 10% final volume of the alamarBlue reagent was added to each well of the plate and incubated for 4 h at 37°C. Then the fluorescence intensity was measured using the FLUOstar OPTIMA plate reader (BMG Labtech, Germany) with an excitation wavelength of 560 ± 5 nm and an emission wavelength of 590 ± 5 nm.
(§3) To quantitatively profile the drug sensitivity with a more robust parameter than the IC50 or EC50 values, the drug sensitivity score (DSS) analysis was employed. DSS values are essentially normalized area under the curve (AUC) measures of dose-response inhibition data ([Yadav et al., 2014]). Drug response data files (in Excel) ready for online analysis were prepared according to the example file obtained from the DSS pipeline website, called Breeze^1 ([Potdar et al., 2020]). Either raw fluorescence intensity measurements or normalized % inhibition data (for BRET assay analysis) were uploaded.
(§4) DSS3 was employed to emphasize drugs that obtain their response area over a relatively wide dose window, as compared to drugs that show increased response only at the higher end of the concentration range. After logistic fitting of the dose-response inhibition data, the area under the curve (AUC) was determined as the exact solution. A 10% minimal activity threshold (t) was set. The maximum (Cmax) and minimum (Cmin) concentrations were used for screening of the inhibitors, with Cmax = x2 and x1 concentration with minimal activity t.

MDA-MB-231 = assay: as above; format: cell-based; settings: for IC50: Homo sapiens; for KRAS/HRAS mutant cell line DSS3 ratio: MDA-MB-231 vs Hs 578T 3D spheroid formation, 0.6–40 μM, numbers above bars Fig. 1A,B
Procedure: as §1, §2, §3, §4

calmodulin (CaM) = calmodulin (CaM) (Bos taurus, UniProt P62157); assay: Fluorescence polarization assay, displacement of F-PMCA peptide from CaM; settings: for kinact/KI: read-out: k2/Ki second-order rate constant
[1] = test system: NCI-H358, MIA PaCa-2, MDA-MB-231 and A375 3D spheroids; assay: 3D spheroid growth benchmarking, DSS3, alamarBlue; format: cell-based; settings: spheroids grown 72 h then treated 72 h
Procedure: as §1, §2, §3, §4

K-RasG12V = K-RasG12V nanoclustering-BRET assay in HEK293-EBNA cells; format: cell-based; settings: mevastatin 10 μM
Procedure: BRET assays were essentially performed as described by others ([Lavoie et al., 2013]; [Bery et al., 2018]). About 100,00–150,000 HEK293-EBNA ([Meissner et al., 2001]) cells were seeded per well of a 12-well plate in 1 ml of DMEM containing 10% FBS and 2 mM L-glutamine and were grown for 24 h. Next day, Rluc8-tagged donor and GFP2-tagged acceptor constructs were transfected into cells using a jetPRIME transfection reagent (cat. no. 114-75, Polyplus). Each well was transfected with about 1 μg of plasmid DNA using 3 μl of the jetPRIME reagent. For BRET donor saturation titration experiments, the concentration of donor plasmid (25 ng) was kept constant, and the concentration of acceptor plasmid was increased from 0 to 500 ng for RasG12V BRET pairs and 0–1,000 ng for K-Ras/CaM BRET pairs. The empty pcDNA3.1(-) plasmid was used to top-up the total DNA load per transfection. After 24 h of transfection, cells were treated with compounds or vehicle control (DMSO 0.2% v/v in a growth medium) at the specified concentration for 24 h or the stipulated time period in case of the time-course experiments. The cells from one well of a 12-well plate were collected, washed, and re-plated in PBS (cat. no. 14190-094, Gibco, Thermo Fisher Scientific) on flat bottom, white 96-well plates (cat. no. 236108, Nunc, Thermo Fisher Scientific) as four technical replicates containing 90 μl of cell suspension per well. Then fluorescence intensity followed by BRET readings were carried out on a Clariostar (BMG Labtech) plate reader at 25°C. The fluorescence intensity (RFU) of GFP2 was measured with excitation at 405 ± 10 nm and emission 515 ± 10 nm; it is proportional to the acceptor concentration [acceptor]. BRET readings were taken well by well by adding 10 μl of 100 μM coelenterazine 400a (cat. no. C-320, GoldBio), the Rluc8 substrate to each well (final concentration of 10 μM) using the injector present in the plate reader. Luminescence emission intensities were simultaneously recorded at 410 ± 40 nm (RLU, proportional to [donor]) and 515 ± 15 nm (BRET signal).
The raw BRET ratio was calculated as the BRET signal measured at 515 nm divided by the emission signal measured at 410 nm (RLU). The BRET ratio was obtained by subtracting the raw BRET ratio by a background BRET signal measured for cells expressing only the donor ([Bacart et al., 2008]) as indicated in the formula below:
For BRET donor saturation titration experiments, the BRET ratio was plotted against the [acceptor]/[donor] ratio. Technical repeat data points were averaged, and data points from all biological repeats were collected into one graph for subsequent fitting. The BRET ratio vs. relative expression data were fitted using a binding saturation equation in the Prism (GraphPad) software to obtain BRETmax and BRET50 using the equation y=BRETmax×x/BRET50+x , where x is the relative expression and y is the BRET ratio. BRETmax represents the maximum saturation BRET signal and depends on the structural parameters (distance, orientation) of the BRET complex. BRET50 corresponds to the ratio of the acceptor construct over the donor construct required to attain 50% of the maximum BRET signal and is a measure of the effective relative affinity between the interacting BRET pair ([Marullo and Bouvier, 2007]).
When applying the DSS analysis to nanoclustering-BRET data, we used mevastatin (10 μM) to obtain the asymptote parameter (a) for the maximal inhibition effect, as it prevents the prenylation of Ras proteins, their plasma membrane trafficking, and therefore nanoclustering. Otherwise, normalized BRET ratio data were converted to % inhibition and then subsequently uploaded onto the Breeze site (see text footnote 1).

[2] = 72 h, Hs 578T (H-RasG12D) 3D tumorosphere, 3 days treatment, read-out: IC50
[3] = Hs 578T 3D tumorosphere, log scale
[4] = 72 h, MDA-MB-231 (K-RasG13D) 3D tumorosphere, 3 days treatment, read-out: IC50
[5] = MDA-MB-231 3D tumorosphere, log scale
[6] = Hs 578T 3D tumorosphere, log scale, read-out: logIC50 ± SD (converted)
[7] = MDA-MB-231 3D tumorosphere, log scale, read-out: logIC50 ± SD (converted)

SMILES	IC50 (Hs 578T; [2])	logIC50 ± SD (Hs 578T; [3])	IC50 (MDA-MB-231; [4])	logIC50 ± SD (MDA-MB-231; [5])	KRAS/HRAS mutant cell line DSS3 ratio (MDA-MB-231)	Kd (calmodulin (CaM))	effect on 3D spheroid growth [1]	time-dependent change of K-RasG12V nanoclustering-BRET signal (K-RasG12V; 2-h treatment timeframe, OphA 10 μM)	K-Ras selective reduction of nanoclustering-BRET (K-Ras vs H-Ras) (K-RasG12V; 24 h, calmidazolium 20 μM, OphA 2.5 μM, prostratin 10 μM, benzazulenones 20 μM)	IC50 (Hs 578T; [6])	IC50 (MDA-MB-231; [7])	Ki (calmodulin (CaM))	affinity for CaM relative to OphA (calmodulin (CaM); after 24-h incubation, higher affinity than OphA)	kinact/KI (calmodulin (CaM))	Kd ± SD (calmodulin (CaM); CaM-binding affinity after 24-h incubation, F-PMCA probe)
CC(C)c1ccc2cc(C(F)(F)F)c(=O)c3c(N)c(C=O)c(c1)c23 [Compound 7]	> 40 µM	Inconclusive	> 40 µM	Inconclusive	2.2	45 µM									
CC(C)c1ccc2cc(C(F)(F)F)c(=O)c3c(N4CCCC4)c(C=O)c(c1)c23 [Compound 4]	> 40 µM	Inconclusive	> 40 µM	Inconclusive	2.0	39 µM									
C=CC(=O)N1CCN(c2nc(=O)n(-c3c(C)ccnc3C(C)C)c3nc(-c4c(O)cccc4F)c(F)cc23)[C@@H](C)C1 [AMG-510]							selectively and potently abolished the growth								
Cc1c(NCCO)c2c(=O)c(C(F)(F)F)cc3ccc(C(C)C)cc1c32 [Compound 13]	> 40 µM	Inconclusive	> 40 µM	Inconclusive	14.5	62 µM									
Cc1c(N)c2c(=O)c(C(F)(F)F)cc3ccc(C(C)C)cc1c32 [Compound 14]	> 40 µM	Inconclusive	> 40 µM	Inconclusive	4.7	21.4 µM									
CC[C@H](C)C(=O)O[C@H]1CCC=C2C=C[C@H](C)[C@H](CC[C@@H]3C[C@@H](O)CC(=O)O3)[C@H]21 [mevastatin]								did not cause any reduction in the BRET signal	fairly indiscriminately						
CC(C)c1ccc2cc(C(F)(F)F)c(=O)c3c(N4CCOCC4)c(C=O)c(c1)c23 [Compound 2]	24.9 µM		22.8 µM		3.3	0.23 µM				24.5 µM	22.9 µM	13 µM	15 fold	25.8 M⁻¹ s⁻¹	
Cc1c(N2CCC2)c2c(=O)c(C(F)(F)F)cc3ccc(C(C)C)cc1c32 [Compound 12]	8.5 µM		> 40 µM	Inconclusive	0.01	6.1 µM				7.94 µM					
CC(C)c1ccc2cc(C(F)(F)F)c(=O)c3c(N4CCC4)c(C=O)c(c1)c23 [Compound 5]	13.2 µM		34.5 µM		0.7	29 µM				13.2 µM	34.7 µM				
CC(C)c1ccc2cc(C(F)(F)F)c(=O)c3c(NCCO)c(C=O)c(c1)c23 [Compound 6]	> 40 µM	Inconclusive	> 40 µM	Inconclusive	115.5	31 µM									
Cc1c(N2CCN(C)CC2)c2c(=O)c(C(F)(F)F)cc3ccc(C(C)C)cc1c32 [Compound 10]	23.1 µM		> 40 µM	Inconclusive	0.03					22.9 µM					Inconclusive
Cc1c(N2CCOCC2)c2c(=O)c(C(F)(F)F)cc3ccc(C(C)C)cc1c32 [Compound 9]	17.4 µM		19.6 µM		1.3	1.44 µM				17.4 µM	19.5 µM	229 µM		1.67 M⁻¹ s⁻¹	
Cc1c(N2CCCC2)c2c(=O)c(C(F)(F)F)cc3ccc(C(C)C)cc1c32 [Compound 11, 2-pyrrolidinylbenzazulen-3-one]	5.2 µM		15.4 µM		1.2	0.81 µM				5.89 µM	15.5 µM	78 µM		1.11 M⁻¹ s⁻¹	
